# Measurements reported in patent US9221826B2, “Pyrrolopyridazine JAK3 inhibitors and their use for the treatment of inflammatory and autoimmune diseases” (Bristol-Myers Squibb Company, priority 2011, dated 2015).
# Assays:
# Assay type in all cases: biochemical
# JAK3 enzyme = molecular target: T1, JAK3 enzyme (Homo sapiens, UniProt P52333); assay: JAK3 Kinase Assay Protocol (Filter); settings: 33P γ-ATP, 8 μM ATP, CSKtide substrate, read-out: LLE_JAK3_FB (IC50)
# T1 sequence (P52333 1-1124): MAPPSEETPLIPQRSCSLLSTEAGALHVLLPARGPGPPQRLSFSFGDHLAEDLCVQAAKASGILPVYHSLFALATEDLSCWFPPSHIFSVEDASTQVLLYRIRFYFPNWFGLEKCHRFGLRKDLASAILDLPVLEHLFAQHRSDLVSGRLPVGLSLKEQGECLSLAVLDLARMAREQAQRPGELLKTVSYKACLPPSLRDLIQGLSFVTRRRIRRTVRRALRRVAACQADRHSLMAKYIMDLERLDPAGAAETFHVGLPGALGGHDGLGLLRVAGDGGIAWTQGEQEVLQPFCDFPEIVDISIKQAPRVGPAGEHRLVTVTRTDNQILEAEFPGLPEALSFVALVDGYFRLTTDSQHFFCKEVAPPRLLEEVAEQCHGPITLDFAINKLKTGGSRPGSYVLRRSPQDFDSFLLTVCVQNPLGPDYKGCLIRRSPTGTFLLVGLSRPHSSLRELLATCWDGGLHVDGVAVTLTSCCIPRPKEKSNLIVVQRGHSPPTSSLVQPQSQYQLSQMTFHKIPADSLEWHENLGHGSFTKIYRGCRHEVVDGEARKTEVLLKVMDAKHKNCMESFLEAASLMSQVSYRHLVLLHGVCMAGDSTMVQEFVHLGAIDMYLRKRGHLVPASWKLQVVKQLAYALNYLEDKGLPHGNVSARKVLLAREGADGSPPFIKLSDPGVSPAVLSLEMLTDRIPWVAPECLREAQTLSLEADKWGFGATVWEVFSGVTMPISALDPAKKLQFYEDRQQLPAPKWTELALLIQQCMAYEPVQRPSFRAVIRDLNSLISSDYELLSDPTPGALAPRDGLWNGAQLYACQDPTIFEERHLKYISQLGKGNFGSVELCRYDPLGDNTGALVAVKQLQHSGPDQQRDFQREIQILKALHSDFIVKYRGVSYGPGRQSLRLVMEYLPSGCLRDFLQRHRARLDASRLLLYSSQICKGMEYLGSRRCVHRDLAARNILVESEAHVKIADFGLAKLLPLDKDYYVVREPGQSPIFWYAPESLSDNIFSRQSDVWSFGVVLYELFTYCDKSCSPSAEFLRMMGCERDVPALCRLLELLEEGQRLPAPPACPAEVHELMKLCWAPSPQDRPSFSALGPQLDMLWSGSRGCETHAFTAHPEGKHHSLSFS
# Procedure: Kinase reactions consisted of 5 ng of JAK3 enzyme, 30 uM CSKtide substrate, 0.2 μCi ^33P γ-ATP, 8 μM ATP in 30 μl kinase buffer (50 mM Hepes, pH 8.0, 10 mM MgCl2, 1 mM EGTA, 2 mM DTT). Reactions were incubated for 30 minutes at room temperature and stopped by the addition of cold trichloroacetic acid (TCA) to a final concentration of 15%. TCA precipitates were collected onto 384 well phosphocellulose filters (Millipore) using a Platemate to transfer the reaction mixture, washed on an EMBLA plate washer and the filters were quantitated using a TopCount 384-well liquid scintillation counter. […] Compounds were dissolved at 10 mM in dimethylsulfoxide (DMSO) and evaluated at six concentrations, each in triplicate. The final concentration of DMSO in the assay equaled 2%. IC50 values were derived by non-linear regression analysis.
# GST-JAK3 enzyme = molecular target: T2, GST-JAK3 enzyme (Homo sapiens, UniProt P52333); assay: JAK3 Kinase Assay Protocol (Caliper); settings: Caliper LabChip assay, ATP 8 μM, fluoresceinated peptide; read-out: LLE_JAK3_CAL (IC50)
# T2 sequence (P52333 1-1124): T1 sequence (P52333 1-1124)
# Procedure: The assay reactions were performed in U-bottom 384-well plates. […] The reaction was initiated by the combination of GST-JAK3 enzyme with substrates and test compounds. The reactions were incubated at room temperature for 3 hours and terminated by adding 60 μl of 35 mM EDTA to each sample. Each reaction mixture was analyzed on the Caliper LabChip 3000 (Caliper, Hopkinton, Mass.) by electrophoretic separation of the fluorescent substrate and phosphorylated product. […] Compounds were dissolved at 10 mM in dimethylsulfoxide (DMSO) and evaluated at eleven concentrations. IC50 values were derived by non-linear regression analysis.
# GST-JAK1 enzyme = GST-JAK1 enzyme (Homo sapiens, UniProt P23458); assay: JAK1 Kinase Assay Protocol; settings: Caliper LabChip assay, ATP 100 μM, fluoresceinated peptide; read-out: LLE_JAK1 (IC50)
# Procedure: The assay reactions were performed in U-bottom 384-well plates. The final assay volume was 30 μl prepared from 15 μl additions of enzyme and substrates (fluoresceinated peptide and ATP) and test compounds in assay buffer (20 mM HEPES pH 7.4, 10 mM MgCl2, 25 mM beta-glycerol phosphate, 0.015% Brij35 and 4 mM DTT). The reaction was initiated by the combination of GST-JAK1 enzyme with substrates and test compounds. The reactions were incubated at room temperature for 3 hours and terminated by adding 60 μl of 35 mM EDTA to each sample. Each reaction mixture was analyzed on the Caliper LabChip 3000 (Caliper, Hopkinton, Mass.) by electrophoretic separation of the fluorescent substrate and phosphorylated product. […] The final concentration of reagents in the assays was: ATP, 100 μM; fluoresceinated peptide, 1.5 μM; GST-JAK1, 12.5 nM; and DMSO, 1.6%. […] Compounds were dissolved at 10 mM in dimethylsulfoxide (DMSO) and evaluated at eleven concentrations. IC50 values were derived by non-linear regression analysis.
# GST-JAK1 enzyme, sequence (P23458 whole entry): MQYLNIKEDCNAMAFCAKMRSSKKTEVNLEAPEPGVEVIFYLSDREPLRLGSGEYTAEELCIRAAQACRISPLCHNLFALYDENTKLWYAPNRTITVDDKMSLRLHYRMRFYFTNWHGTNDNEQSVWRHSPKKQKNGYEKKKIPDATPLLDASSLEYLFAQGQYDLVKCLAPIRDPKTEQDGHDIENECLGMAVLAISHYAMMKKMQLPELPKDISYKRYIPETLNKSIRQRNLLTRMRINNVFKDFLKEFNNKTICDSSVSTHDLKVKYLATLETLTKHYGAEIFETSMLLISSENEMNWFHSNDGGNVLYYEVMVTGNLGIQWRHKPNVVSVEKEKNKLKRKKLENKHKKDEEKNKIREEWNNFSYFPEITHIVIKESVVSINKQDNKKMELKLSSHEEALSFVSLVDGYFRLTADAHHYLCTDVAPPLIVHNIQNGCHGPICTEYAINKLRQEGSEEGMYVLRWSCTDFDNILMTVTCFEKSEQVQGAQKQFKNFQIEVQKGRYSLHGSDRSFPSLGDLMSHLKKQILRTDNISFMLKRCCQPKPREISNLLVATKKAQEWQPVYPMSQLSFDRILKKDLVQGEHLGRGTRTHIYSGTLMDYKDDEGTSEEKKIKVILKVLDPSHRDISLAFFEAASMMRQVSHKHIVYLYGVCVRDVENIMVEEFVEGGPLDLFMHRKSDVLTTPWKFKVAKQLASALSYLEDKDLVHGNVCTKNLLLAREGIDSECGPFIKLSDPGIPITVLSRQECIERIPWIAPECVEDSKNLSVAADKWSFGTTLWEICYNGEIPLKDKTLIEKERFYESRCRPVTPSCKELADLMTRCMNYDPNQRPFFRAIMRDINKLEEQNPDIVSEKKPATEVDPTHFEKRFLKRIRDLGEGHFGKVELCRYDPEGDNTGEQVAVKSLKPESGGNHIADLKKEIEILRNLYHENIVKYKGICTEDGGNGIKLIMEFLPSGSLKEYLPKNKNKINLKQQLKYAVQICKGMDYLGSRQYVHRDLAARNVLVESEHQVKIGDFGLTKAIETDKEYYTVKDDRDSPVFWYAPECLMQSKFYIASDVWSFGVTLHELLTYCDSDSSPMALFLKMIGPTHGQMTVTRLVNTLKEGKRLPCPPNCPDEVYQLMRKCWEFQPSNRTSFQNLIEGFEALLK
Compound,IC50 (JAK3 enzyme) [nM],IC50 (GST-JAK3 enzyme) [nM],IC50 (GST-JAK1 enzyme) [nM]
"COc1ccc(-c2cc3c(N[C@H](C)c4ccccc4F)c(C(N)=O)cnn3c2)cn1 [Example 180, 4-(((1R)-1-(2-fluorophenyl)ethyl)amino)-6-(6-methoxy-3-pyridinyl)pyrrolo[1,2-b]pyridazine-3-carboxamide]",13.5,60.9,1200
"CCCNc1c(C(N)=O)cnn2cc(-c3ccccc3)cc12 [Example 183, 6-phenyl-4-(propylamino)pyrrolo[1,2-b]pyridazine-3-carboxamide]",11,27.3,37.3
"NC(=O)c1cnn2cc(-c3ccccc3)cc2c1NCC1(CO)CC1 [Example 189, 4-((1-(hydroxymethyl)cyclopropyl)methylamino)-6-phenylpyrrolo[1,2-b]pyridazine-3-carboxamide]",19.1,8.5,21.5
"CNc1c(C(N)=O)cnn2cc(-c3cccc(CC#N)c3)cc12 [Example 191, 6-(3-(cyanomethyl)phenyl)-4-(methylamino)pyrrolo[1,2-b]pyridazine-3-carboxamide]",88,40.6,72.3
"C[C@@H](Nc1c(C(N)=O)cnn2cc(-c3cnc(N)nc3)cc12)C1CC1 [Example 192, (R)-6-(2-aminopyrimidin-5-yl)-4-(1-cyclopropylethylamino)pyrrolo[1,2-b]pyridazine-3-carboxamide]",1.7,2.1,13
"C[C@@H](Nc1c(C(N)=O)cnn2cc(-c3ccccc3)cc12)C(C)(C)C(N)=O [Example 194, (R)-4-(4-amino-3,3-dimethyl-4-oxobutan-2-ylamino)-6-phenylpyrrolo[1,2-b]-pyridazine-3-carboxamide]",1.3,1,2.8
"CNc1nnc(-c2cc3c(N[C@H](C)C4CC4)c(C(N)=O)cnn3c2)o1 [Example 195, (R)-4-(1-cyclopropylethylamino)-6-(5-(methylamino)-1,3,4-oxadiazol-2-yl)pyrrolo[1,2-b]pyridazine-3-carboxamide]",5.3,8.4,73.7
"C[C@@H](O)[C@@H](CO)Nc1c(C(N)=O)cnn2cc(-c3ccccc3)cc12 [Example 196, 4-((2R,3R)-1,3-dihydroxybutan-2-ylamino)-6-phenylpyrrolo[1,2-b]pyridazine-3-carboxamide]",1.3,3,5.8
C[C@@H](Nc1c(C(N)=O)cnn2cc(-c3ccc(N)nc3)cc12)C1CC1 [Example 200],1.1,2.2,4.8
CNC(=O)c1ccc(-c2cc3c(N[C@H](C)C4CC4)c(C(N)=O)cnn3c2)cn1 [Example 202],1.8,1.2,3.8
C[C@@H](Nc1c(C(N)=O)cnn2cc(-c3cnc(NCCN(C)C)nc3)cc12)C1CC1 [Example 205],7.9,5.4,110
"C[C@@H](Nc1c(C(N)=O)cnn2cc(-c3nnc(N4CCN(C)CC4)o3)cc12)C1(C)CC1 [Example 241, (R)-4-((1-(1-methylcyclopropyl)ethyl)amino)-6-(5-(4-methylpiperazin-1-yl)-1,3,4-oxadiazol-2-yl)pyrrolo[1,2-b]pyridazine-3-carboxamide]",2.3,1.8,100
